In patent US20210386367A1, “DEVICES AND SYSTEMS FOR GASTROINTESTINAL MICROBIOME DETECTION AND MANIPULATION” (Progenity, Inc., priority 2018, published 2021):
Values after ≈ are worked out from the molar mass of the structure shown.

How the values were obtained:
B. fragilis ATCC 25285 [1] = test: Broth microdilution MIC (time-kill study); assay type: cell-based, Bacteroides fragilis; conditions: Bacteroides fragilis, ATCC25285; B. fragilis MMX 123 ATCC 25285; read-out: MIC
B. vulgatus ATCC 8482 = test: Broth microdilution MIC (time-kill study); assay type: cell-based, Bacteroides vulgatus; conditions: Phocaeicola vulgatus, ATCC8482; B. vulgatus ATCC 8482; read-out: MIC
E. coli MMX 1312 = test: Broth microdilution MIC (time-kill study); assay type: cell-based, Escherichia coli; conditions: Escherichia coli, MMX1312; E. coli MMX 1312; read-out: MIC
B. ovatus MMX 3503 = test: Broth microdilution MIC (time-kill study); assay type: cell-based, Bacteroides ovatus; conditions: Bacteroides ovatus, MMX3503; B. ovatus MMX 3504 (so in the source); read-out: MIC
S. pyogenes ATCC 49399 = test: Broth microdilution MIC (time-kill study); assay type: cell-based, Streptococcus pyogenes; conditions: Streptococcus pyogenes, ATCC49399; S. pyogenes ATCC 49399; read-out: MIC
S. pneumoniae ATCC 49619 = test: Broth microdilution MIC (time-kill study); assay type: cell-based, Streptococcus pneumoniae; conditions: Streptococcus pneumoniae, ATCC49619; S. pneumoniae ATCC 49619; read-out: MIC
E. coli ATCC 25922 = test: Broth microdilution MIC (time-kill study); assay type: cell-based, Escherichia coli; conditions: Escherichia coli, ATCC25922; E. coli ATCC 25922; read-out: MIC
Clostridium spp. = test: Agar dilution MIC, 10 clinical isolates; assay type: cell-based
[2] = tested on: E. coli ATCC 35218 (TEM-1 β-lactamase producer); test: Broth microdilution MIC (time-kill study); assay type: cell-based, Escherichia coli; conditions: Escherichia coli, ATCC35218
B. fragilis ATCC 25285 [3] = conditions: B. fragilis MMX 123 ATCC 25285; cited from earlier work
S. agalactiae ATCC 13813 = test: Broth microdilution MIC (time-kill study); assay type: cell-based, Streptococcus agalactiae; conditions: Streptococcus agalactiae, ATCC13813
[4] = tested on: Streptococcus spp. spontaneous mutants; test: organism not typed; assay type: cell-based
Procedure, shortened: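 Spontaneous mutants from drug selection plates were tested by CLSI broth microdilution in MHB II with two-fold serial drug dilutions. Inoculum was about 5×10^5 CFU/mL, incubated aerobically at 35° C. for 18-20 hr. MIC was the lowest concentration inhibiting visible growth.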

[5] = tested on: E. coli spontaneous mutants; conditions: E. coli ATCC 25922; CLSI QC range shown in parentheses; cited from earlier work
[6] = tested on: E. coli spontaneous mutants; test: Broth microdilution MIC of spontaneous mutants; assay type: cell-based, Escherichia coli
Description: Select isolates were subcultured onto agar containing drug at the selection concentration, were identified by MALDI, and were frozen for broth microdilution MIC testing as described below.
To determine whether colonies growing on drug selection plates had elevated MIC values to the selecting antibiotic, susceptibility testing by broth microdilution was conducted on isolated mutants following methodology recommended by CLSI (1), (2), and (3) “Performance Standards for Antimicrobial Susceptibility Testing; Twenty-Eighth Informational Supplement.,” CLSI document M100-S28, 2018.
All wells in columns 2 through 12 of a standard 96-well microdilution plate (Costar 3795) were filled with 150 μL of the appropriate diluent. Then, 300 μL of the test agents were added to the wells of column 1 of the plates at […] the highest final concentration to be tested. Serial two-fold dilutions were made across the rows through column 11 using the Biomek 2000. The wells of column 12 contained no drug and served as the growth control wells. This plate served as the “mother plate” from which selected MIC assay plates or “daughter plates” were made.
2 μL of drug solution from each well of a mother plate was added to each corresponding well of the daughter plate in a single step. A standardized inoculum of each aerobic test organism was prepared per CLSI methods to equal a 0.5 McFarland standard, followed by a dilution of 1:20 in MHB II. The plates were then inoculated with 10 μL of the diluted inoculum using the Biomek 2000 from low to high drug concentration, resulting in a final concentration of approximately 5×10^5 CFU/mL. An un-inoculated plate was incubated for the purpose of assessing solubility of the drug in the test media.
The plates for the aerobic tests were stacked 3-4 high, covered with a sterile lid on the top plate, and incubated aerobically at 35° C. for 18-20 hr. The MIC was recorded as the lowest concentration of drug that inhibited visible growth of the organism.

[7] = tested on: Streptococcus spp. spontaneous mutants; conditions: S. pneumoniae ATCC 49619; CLSI QC range shown in parentheses; cited from earlier work

## Cc1ncc([N+](=O)[O-])n1CCO [metronidazole, Metronidazole]
B. fragilis ATCC 25285 [1]
  MIC: 0.5 µg/mL (≈ 2.92 µM)
B. vulgatus ATCC 8482
  MIC: 0.5 µg/mL (≈ 2.92 µM)
E. coli MMX 1312
  MIC: > 32 µg/mL
B. ovatus MMX 3503
  MIC: 0.5 µg/mL (≈ 2.92 µM)
S. pyogenes ATCC 49399
  MIC: > 32 µg/mL
S. pneumoniae ATCC 49619
  MIC: > 32 µg/mL
E. coli ATCC 25922
  MIC: > 32 µg/mL
Clostridium spp.
  relative activity among drugs tested: meropenem and metronidazole had similar activity
[2]
  MIC: > 32 µg/mL
B. fragilis ATCC 25285 [3]
  CLSI QC range (MIC): (0.25-2) μg/mL
S. agalactiae ATCC 13813
  MIC: > 32 µg/mL

## CN(C)[C@@H]1C(O)=C(C(N)=O)C(=O)[C@@]2(O)C(O)=C3C(=O)c4c(O)cccc4[C@@](C)(O)[C@H]3C[C@@H]12 [TET]
[4]; S. agaloctiae ATCC 13813, selected on rifaximin 4X MIC, Colony A
  MIC: 0.12 µg/mL (≈ 0.27 µM)
[4]; S. agaloctiae ATCC 13813, selected on rifaximin 4X MIC, Colony B
  MIC: 0.12 µg/mL (≈ 0.27 µM)
[4]; S. agaloctiae ATCC 13813, selected on rifaximin 8X MIC, Colony A
  MIC: 0.12 µg/mL (≈ 0.27 µM)
[4]; S. agaloctiae ATCC 13813, selected on rifaximin 8X MIC, Colony B
  MIC: 0.25 µg/mL (≈ 0.563 µM)
[4]; S. agaloctiae ATCC 13813 Parent
  MIC: 0.12 µg/mL (≈ 0.27 µM)
[4]; S. pneumoniae ATCC 49619, selected on rifaximin 4X MIC, Colony A
  MIC: 0.06 µg/mL (≈ 0.135 µM)
[4]; S. pneumoniae ATCC 49619, selected on rifaximin 4X MIC, Colony B
  MIC: 0.06 µg/mL (≈ 0.135 µM)
[4]; S. pneumoniae ATCC 49619, selected on rifaximin 8X MIC, Colony A
  MIC: 0.06 µg/mL (≈ 0.135 µM)
[4]; S. pneumoniae ATCC 49619, selected on rifaximin 8X MIC, Colony B
  MIC: 0.06 µg/mL (≈ 0.135 µM)
[4]; S. pneumoniae ATCC 49619 Parent
  MIC: 0.12 µg/mL (≈ 0.27 µM)
[4]; S. pyogenes ATCC 49399, selected on rifaximin 4X MIC, Colony A
  MIC: 0.12 µg/mL (≈ 0.27 µM)
[4]; S. pyogenes ATCC 49399, selected on rifaximin 4X MIC, Colony B
  MIC: 0.12 µg/mL (≈ 0.27 µM)
[4]; S. pyogenes ATCC 49399, selected on rifaximin 8X MIC, Colony A
  MIC: 0.12 µg/mL (≈ 0.27 µM)
[4]; S. pyogenes ATCC 49399, selected on rifaximin 8X MIC, Colony B
  MIC: 0.12 µg/mL (≈ 0.27 µM)
[4]; S. pyogenes ATCC 49399 Parent
  MIC: 0.12 µg/mL (≈ 0.27 µM)
[5]
  MIC, CLSI QC range: (0.5-2) μg/mL
[6]; E. coli ATCC 25922, selected on rifaximin 4X MIC, Colony A
  MIC: 0.5 µg/mL
[6]; E. coli ATCC 25922, selected on rifaximin 4X MIC, Colony B
  MIC: 1 µg/mL
[6]; E. coli ATCC 25922, selected on rifaximin 8X MIC, Colony A
  MIC: 1 µg/mL
[6]; E. coli ATCC 25922, selected on rifaximin 8X MIC, Colony B
  MIC: 1 µg/mL
[6]; E. coli ATCC 25922 Parent (Table 52)
  MIC: 1 µg/mL
[6]; E. coli ATCC 35218, selected on rifaximin 4X MIC, Colony A
  MIC: 2 µg/mL
[6]; E. coli ATCC 35218, selected on rifaximin 4X MIC, Colony B
  MIC: 1 µg/mL
[6]; E. coli ATCC 35218, selected on rifaximin 8X MIC, Colony A
  MIC: 0.5 µg/mL
[6]; E. coli ATCC 35218, selected on rifaximin 8X MIC, Colony B
  MIC: 2 µg/mL
[6]; E. coli ATCC 35218 Parent (Table 52)
  MIC: 1 µg/mL
[6]; E. coli MMX 1312, selected on ceftriaxone 4X MIC, Colony A
  MIC: >16 µg/mL
[6]; E. coli MMX 1312, selected on ceftriaxone 4X MIC, Colony B
  MIC: >16 µg/mL
[6]; E. coli MMX 1312, selected on ceftriaxone 4X MIC, Colony C
  MIC: >16 µg/mL
[6]; E. coli MMX 1312, selected on ceftriaxone 8X MIC, Colony A
  MIC: >16 µg/mL
[6]; E. coli MMX 1312, selected on ceftriaxone 8X MIC, Colony B
  MIC: >16 µg/mL
[6]; E. coli MMX 1312, selected on ceftriaxone 8X MIC, Colony C
  MIC: >16 µg/mL
[6]; E. coli MMX 1312, selected on rifaximin 4X MIC, Colony A
  MIC: >16 µg/mL
[6]; E. coli MMX 1312, selected on rifaximin 4X MIC, Colony B
  MIC: >16 µg/mL
[6]; E. coli MMX 1312, selected on rifaximin 8X MIC, Colony A
  MIC: >16 µg/mL
[6]; E. coli MMX 1312, selected on rifaximin 8X MIC, Colony B
  MIC: >16 µg/mL
[6]; E. coli MMX 1312 Parent
  MIC: >16 µg/mL
[6]; E. coli MMX 1312 Parent (Table 49)
  MIC: >16 µg/mL
[6]; E. coli MMX 1312 Parent (Table 52)
  MIC: >16 µg/mL
[6]; E. coli MMX 1312 mutant selected on meropenem 4X MIC, colony A
  MIC: >16 µg/mL
[6]; E. coli MMX 1312 mutant selected on meropenem 4X MIC, colony B
  MIC: >16 µg/mL
[6]; E. coli MMX 1312 mutant selected on meropenem 4X MIC, colony C
  MIC: 4 µg/mL
[6]; E. coli MMX 1312 mutant selected on meropenem 8X MIC, colony A
  MIC: >16 µg/mL
[6]; E. coli MMX 1312 mutant selected on meropenem 8X MIC, colony B
  MIC: >16 µg/mL
[6]; E. coli MMX 1312 mutant selected on meropenem 8X MIC, colony C
  MIC: >16 µg/mL
[7]
  MIC, CLSI QC range: (0.06-0.5) μg/mL
